Experiment: gradient 5% acetonitrile 3 min, to 50% in 2 min, to 85% in 15 min, held 3 min, 100 µL/min
Conditions: column: Zorbax Extend-C18 2.1 x 50 mm; eluents: water / acetonitrile, 0.1% formic acid
In short: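 Using water and acetonitrile that each contained 0.1% formic acid, mixtures of ~100 pure standards were separated at 100 μL/min on a Zorbax Extend-C18 column (2.1 × 50 mm, 1.8 μm). The HPLC fed a quadrupole time-of-flight mass spectrometer working in positive and negative ionization mode, with dead and dwell volumes of 40 μL and 900 μL. Data were acquired over 3 months. Retention time was read from computationally picked adduct peaks after manual inspection of each.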

RP-LC retention time [s]	Compound
1140	CCOc1ccc(/C=C/C(=O)Nc2nc(-c3ccccc3)cs2)cc1
871	COc1ccc(C2C(C(=O)N3CC(C)CC(C)C3)CCC(=O)N2c2ccc(OC)cc2)cc1 (stereo not given)
1020	Cc1ccc(N2C(=O)N3CCc4c([nH]c5ccccc45)C3(C)C2=O)cc1 (stereo not given)
628	COc1ccc(CCN2CCC(CNS(=O)(=O)c3ccc4c(c3)CCCC(=O)N4)CC2)cc1
836	O=C(NC1CCCC1)C1CCN(S(=O)(=O)c2cc(C(=O)N3CCCCCC3)cs2)CC1
603	O=S(=O)(NCC1CCN(Cc2ccco2)CC1)c1ccc2c(c1)CCCC2
578	CCn1nc(C(=O)NCCn2nc(C)cc2C)ccc1=O
538	Cc1ccnc(N2CCCC(C(=O)N3CCN(C)CC3)C2)n1 (stereo not given)
668	Cn1cc(CCN2CCN(S(=O)(=O)c3ccc4c(c3)CCC4)CC2)c2cccnc21
668	CCc1ccc(S(=O)(=O)N2CCN(CCc3cn(C)c4ncccc34)CC2)cc1
814	Cc1cc2nc(C)c(=O)n(CC(=O)NCCc3c[nH]c4ccccc34)c2cc1C
639	Cc1ccc(-c2cc(C(=O)N3CCN(c4ccccn4)CC3)ccn2)s1
959	Cc1ccc(-c2noc(C(=O)N3CCCC3)n2)cc1S(=O)(=O)N1CCN(c2ncccn2)CC1
656	COc1cccc(CNC(=O)C2CCN(c3cc(N4CCSCC4)ncn3)CC2)c1
892	Cc1cc2[nH]c(C(=O)Nc3cc(Cl)ccc3F)c(CN3CCOCC3)c2s1
742	O=C(NC1CCN(c2cc(-c3ccc(Cl)cc3)[nH]n2)C1)c1ccc2[nH]ccc2c1 (stereo not given)
817	CCCN1C(=O)c2cc(C(=O)N3CCC(C)CC3)nn2CC1(C)C(=O)NC1CCCC1 (stereo not given)
831	CCC(Oc1ccc(=O)n(-c2ccc(F)cc2)n1)C(=O)NCc1ccc(C)o1 (stereo not given)
836	COc1ccc(CNC(=O)C2(C)Oc3cccnc3N(C(C)C)C2=O)cc1OC (stereo not given)
668	COc1ccc(OC)c(NC(=O)Nc2c(-c3ccccc3)nc3ccccn23)c1
974	O=C(CN1c2ccc(F)cc2-c2ccccc2S1(=O)=O)Nc1ccc(F)c(F)c1
616	Cc1nc(-c2ccccc2)nc2c1CC(=O)N2Cc1cccnc1

RP-LC retention time [s]	Compound
828	COc1ccc(-n2ccn3cc(-c4cc(OC)ccc4OC)nc3c2=O)cc1
604	COc1ccc(NC(=O)NCCn2c(C)nc3ccccc32)c(OC)c1
565	CC(C)CCN1CCC(N2CCN(CCc3ccccc3)CC2)C1=O (stereo not given)
630	COc1ccc(-c2noc(-c3ccc(NCCN(C)C)nn3)n2)cc1
732	Fc1ccc(-c2nc(-c3ccc(-n4ccnc4)nc3)no2)cc1
823	Cc1cc(Br)ccc1NC(=O)CCn1c(=O)oc2ccccc21
954	COc1ccccc1OCC(=O)N1CCc2cc(-c3csc(C)n3)ccc21
562	CCn1ccc(C(=O)N2CCN(c3nnc4ccc(Cl)cn34)CC2)n1
575	CCn1cnc(S(=O)(=O)N2CCCC(C(=O)N3CCN(c4ccccn4)CC3)C2)c1 (stereo not given)
895	Cc1c(S(=O)(=O)N2CCCC(C)C2)c(C)n(C)c1C(=O)Nc1ccccc1F (stereo not given)
665	COCCOc1ccc(N2CCN(CCn3ncc4c3nc(N)n3nc(-c5ccco5)nc43)CC2)cc1
843	CC(=O)Nc1nsc(N2CCCC(C(=O)N3CCN(c4cc(C)ccc4C)CC3)C2)n1 (stereo not given)
720	CCCS(=O)(=O)N1CCCC(c2nc(C(C)C)no2)CCNC(=O)CC1 (stereo not given)
784	COc1ccc(-c2nc3ncccn3c2Nc2cc(C)cc(C)c2)cc1
601	Cc1ccc(N2CCN(CC(O)COc3ccc([N+](=O)[O-])cc3)CC2)cc1 (stereo not given)
857	O=C(C1CCN(c2nnc(-c3ccccc3)o2)CC1)N1CCN(c2ccccc2)CC1
970	COc1ccc(-c2csc(C)n2)cc1S(=O)(=O)N1CCc2ccccc2C1
759	CSc1ccc(CNC(=O)c2cccc(-c3nc4cccnc4n3C)c2)cc1
822	COCCCNC(=O)CN1c2ccccc2NC2=C(C(=O)CC(C)(C)C2)C1c1ccc(C)cc1 (stereo not given)
723	CCCN(C)c1nccnc1OC1CCN(C(=O)c2ccoc2)C1 (stereo not given)
1210	CC(NC(=O)c1c(O)c2cccnc2n(-c2cccc(F)c2)c1=O)c1ccc(F)cc1 (stereo not given)
732	CCCNC(=O)N1CCc2cc(-c3ccc(C(=O)N4CCOCC4)cc3)ccc21

RP-LC retention time [s]	Compound
561	Cc1nc2c(c(N(C)CC(=O)N3CCCC3)n1)CCC2
862	Cc1ccc(C)c(NC(=O)Cn2nc(N(C)C)c3ccccc3c2=O)c1
752	O=C(Cc1ccccc1Br)NC1CCN(c2cc(-c3ccc(F)cc3)[nH]n2)C1 (stereo not given)
783	CS(=O)(=O)N1CCC(OC2CCN(C(=O)Nc3ccc(Cl)cc3F)CC2)CC1
651	O=C(Cn1nc2n(c1=O)CCCC2)Nc1ccc(F)cc1
740	CC(C)n1nc(CNC(=O)CNC(=O)c2ccccc2)c2ccccc21
685	CCCS(=O)(=O)N1CCC(N2C[C@H](Oc3ccccc3)[C@@H]2c2ccncc2)CC1
584	COc1ccccc1-c1nc(Cn2ccnc2C)no1
1290	CCCN1C(=O)COc2ccc(-c3noc(-c4ccccc4C)n3)cc21
851	Cc1cccc(NC(=O)CN2c3ccccc3NC3=C(C(=O)CCC3)C2c2ccco2)c1C (stereo not given)
648	O=C(NCCn1ncccc1=O)c1csc(-c2ccccc2)n1
547	O=C(c1cccs1)N1CCC(Nc2ncnc3c2CCC3)C1 (stereo not given)
1030	Cc1cccc(Sc2nccnc2N2CCCC(C(=O)NCc3ccc4c(c3)OCO4)C2)c1 (stereo not given)
767	COC(=O)c1cc(Cl)c(NC(=O)C(C)C)cc1OC
800	COC(=O)c1c(C)[nH]c(C(=O)N2CCCC(C(=O)NCCCc3ccccc3)C2)c1C (stereo not given)
728	O=C1CC(c2nc(-c3cccnc3)no2)CN1c1ccc2c(c1)OCO2 (stereo not given)
1240	CCCN(CCC)S(=O)(=O)c1ccc(C(=O)Nc2nc(-c3ccc(F)cc3)cs2)cc1
829	CCC(=O)N1CCc2c(C(=O)N3CCN(c4ccccc4)CC3)cccc21
1030	COc1ccccc1-c1nc(C2CCN(C(=O)c3cc4cc(Cl)ccc4[nH]3)CC2)no1
628	CC(C)CC(=O)N1CCCC(C(=O)N2CCOCC2)C1 (stereo not given)
791	CCn1c(=O)n(CC)c2cc(S(=O)(=O)C3CCCCC3)c(NC(C)=O)cc21
690	Cc1cccc(N2CCN(C(=O)c3cn4c(n3)CCCC4)CC2)c1C

RP-LC retention time [s]	Compound
687	COc1cc2ncnc(Nc3ccc(NC(=O)c4ccccc4)cc3)c2cc1OC
917	CCN1C(=O)c2cc(C(=O)Nc3cc(C)cc(C)c3)nn2CC1(C)C(=O)NC1CCCC1 (stereo not given)
977	Cc1ccc(CNC(=O)c2cc3c(s2)N(C)CCC3)cc1
790	Cn1c(=O)n(C)c2cc(S(=O)(=O)c3ccc(F)cc3)c(NC(=O)Cc3cccs3)cc21
667	Cc1ccc(-c2nnc(CC(=O)NCC3CCCO3)o2)cc1 (stereo not given)
730	CSc1nc2ccc(NC(=O)c3ccc(N4C(=O)CCC4=O)cc3)cc2s1
702	Cn1cnc(S(=O)(=O)N2CCC(C(=O)NCc3ccc(Cl)cc3)CC2)c1
761	CN1C(=O)C(CC(=O)NCC2CCCCC2)Sc2ncccc21 (stereo not given)
660	CCCc1nnc(-c2cccnc2N2CCN(C(=O)c3ccc4ncccc4c3)CC2)o1
870	O=C(OCc1ccc([N+](=O)[O-])cc1)c1ccc(S(=O)(=O)NCC2CCCO2)cc1 (stereo not given)
584	O=C(Nc1nnc2n1CCS2)c1c(F)cccc1F
1270	O=C(C1CCCN(c2ncnc3c2nc2n3CCCCC2)C1)N1CCOCC1 (stereo not given)
672	Cn1c(=O)c2c(ncn2CC(=O)N2CCC(C)(c3noc(C4CC4)n3)CC2)n(C)c1=O
963	O=C(NCCc1csc(-c2cccs2)n1)C1CCN(S(=O)(=O)c2ccc(Cl)cc2)CC1
796	CC(C)c1cc(C2NNC(=O)N2c2ccc3c(ccn3C)c2)c(O)cc1O (stereo not given)
726	COc1ccc(-c2cc(OC)c3cc(NC(=O)c4cccs4)ccc3n2)cc1
680	CC1CCC(NC(=O)C2CCCN(c3cn[nH]c(=O)c3)C2)CC1 (stereo not given)
860	Cc1[nH]c(C(=O)N2CCCC(C(=O)NCc3ccccc3F)C2)c(C)c1C(=O)OC(C)C (stereo not given)
803	CCc1cccc(NC(=O)N2CCC(OC3CCN(S(C)(=O)=O)CC3)CC2)c1
936	CCOC(=O)c1noc2ncnc(NCc3ccc(C)cc3)c12
1030	CS(=O)(=O)Nc1ccc(C2(C(=O)NCCC3=CCCCC3)CCCCC2)cc1

Compound	RP-LC retention time [s]
CCCN1CCO[C@@H]2c3cc(O)ccc3OC[C@H]21	645
c1ccc2sc(C3(N4CCCC4)CCCCC3)cc2c1	799
COc1ccc2c(c1)C1(CCN(C(=O)Nc3cccc(C)c3)C1)C(=O)N2 (stereo not given)	730

— the METLIN SMRT retention time set (Domingo-Almenara et al. 2019)
